Each structure is given as a SMILES string. Where “and” joins values, the source holds several entries; their conditions need not be identical. Identical values can stand only once.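 Grown in 96-well plates, cells were treated for 48 hours with each compound at five concentrations. Insufficient inhibition: endpoint recorded as highest concentration tested. At the GI50, growth is halved. TGI marks complete inhibition of growth.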 Where a SMILES comes first, the peptide text is derived from it. The star is where a group is joined. Trt = c1ccc(C(c2ccccc2)(c2ccccc2)*)cc1; Cbz = O=C(OCc1ccccc1)* Bounds are passed on as bounds.

Test systems include PC-3 prostate; OVCAR-8 ovarian; CAKI-1 renal; SK-MEL-5 melanoma; SR leukemia; MDA-MB-435; COLO 205 colon; HCT-116 colon; NCI-H522 lung; MCF7 breast.
Holding throughout (assay): growth of human tumour cells (NCI), 48 h

Consider `CC(=O)OCC1OC(n2c(=S)n(-c3ccc([N+](=O)[O-])cc3)c(=O)c3ccccc32)C(OC(C)=O)C(OC(C)=O)C1OC(C)=O` (stereo not given), for which the TGI was 39.9 µM in the assay on PC-3 prostate; 63.5 µM and 47.6 µM with OVCAR-8 ovarian; above 100 µM with CAKI-1 renal; 23.3 µM and > 100 µM in the assay on SK-MEL-5 melanoma; above 100 µM in the assay with SR leukemia; above 100 µM with MDA-MB-435. The TGI with COLO 205 colon is above 100 µM; in the assay on HCT-116 colon it was above 100 µM; in the assay on NCI-H522 lung it was 45.3 µM and 33.7 µM; with MCF7 breast it was 52.6 µM. Also, the GI50 in the assay on CAKI-1 renal was 25.3 µM and 35.9 µM; in the assay with SK-MEL-5 melanoma it was 8.06 µM and 25.6 µM; with SR leukemia, 4.67 µM; with COLO 205 colon, 31.2 µM; in the assay with HCT-116 colon, 18.1 µM and 25.2 µM.
Turning to `CC(=O)Nc1ccc(C(=O)CCl)cc1`, the GI50 in the assay on PC-3 prostate is 10 µM; in the assay with OVCAR-8 ovarian, 7.56 µM; with CAKI-1 renal it was 1.78 µM; in the assay on SK-MEL-5 melanoma, 15.9 µM; in the assay with SR leukemia it was 2.63 µM; with MDA-MB-435 it was 4.74 µM. Further, the GI50 in the assay with COLO 205 colon is 1.97 µM; in the assay on HCT-116 colon, 2.2 µM; in the assay on NCI-H522 lung it was 2.06 µM; with MCF7 breast, 1.66 µM. The TGI in the assay with PC-3 prostate came out at 22.3 µM; with OVCAR-8 ovarian, 24.2 µM; with CAKI-1 renal, 3.24 µM; in the assay with SK-MEL-5 melanoma, 31 µM; in the assay on SR leukemia, 7.33 µM; in the assay with MDA-MB-435 it was 16.6 µM. The TGI stood at 3.93 µM in the assay with COLO 205 colon, 4.95 µM in the assay on HCT-116 colon, 4.17 µM in the assay on NCI-H522 lung and 6.54 µM in the assay with MCF7 breast.
On to `CCOC(=O)[C@@H](C)C[C@H](Cc1ccccc1)NC(=O)c1csc([C@@H](C[C@H](C(C)C)N(C)C(=O)[C@@H](NC(=O)[C@H]2CCCCN2C)C(C)(C)CC)OC(C)=O)n1`, for which the GI50 in the assay on PC-3 prostate was below 0.00167 µM; with OVCAR-8 ovarian, 0.00231 µM; in the assay on CAKI-1 renal it was 0.00176 µM; with SK-MEL-5 melanoma it was below 0.00167 µM; in the assay with SR leukemia, below 0.00167 µM; in the assay on MDA-MB-435 it was below 0.00167 µM. The GI50 with COLO 205 colon, in the assay on HCT-116 colon, in the assay with NCI-H522 lung and with MCF7 breast was below 0.00167 µM each time. The TGI is above 16.7 µM with PC-3 prostate; above 16.7 µM in the assay on OVCAR-8 ovarian; above 9.4 µM in the assay with CAKI-1 renal; 0.0294 µM in the assay with SK-MEL-5 melanoma; 3.39 µM with SR leukemia; below 0.00167 µM with MDA-MB-435. The TGI with COLO 205 colon is 0.003 µM; in the assay with HCT-116 colon, 3.02 µM; with NCI-H522 lung it was 0.0397 µM; with MCF7 breast, above 16.7 µM.
`NS(=O)(=O)c1ccc(Nc2cc(-c3ccc(O)c(F)c3)[nH]n2)cc1`: the GI50 was above 25 µM in the assay on PC-3 prostate; 17.8 µM in the assay with OVCAR-8 ovarian; above 25 µM in the assay with CAKI-1 renal; 10.7 µM with SK-MEL-5 melanoma; 12.5 µM in the assay with SR leukemia; above 23.5 µM in the assay on MDA-MB-435. The GI50 in the assay on COLO 205 colon is above 25 µM; in the assay with HCT-116 colon it was above 25 µM; in the assay with NCI-H522 lung, 13.9 µM; in the assay with MCF7 breast it was above 25 µM. For the same molecule, the TGI in the assay on PC-3 prostate, with OVCAR-8 ovarian, in the assay with CAKI-1 renal, with SK-MEL-5 melanoma, with SR leukemia and in the assay with MDA-MB-435 was above 25 µM in each case. Moreover, the TGI with COLO 205 colon, with HCT-116 colon, in the assay with NCI-H522 lung and in the assay on MCF7 breast was above 25 µM in each case.
Consider `CC(C)(C)c1cc(C(=O)Nc2ccccc2C(=O)NCCN)cc(C(C)(C)C)c1`, for which the GI50 was 1.79 µM in the assay on PC-3 prostate; 2.08 µM with OVCAR-8 ovarian; 2.21 µM in the assay on CAKI-1 renal; 1.82 µM in the assay with SK-MEL-5 melanoma; 1.94 µM in the assay with SR leukemia; 1.72 µM in the assay with MDA-MB-435. Besides, the GI50 in the assay with COLO 205 colon was 1.81 µM; in the assay on HCT-116 colon, 1.8 µM; with NCI-H522 lung it was 1.85 µM; in the assay with MCF7 breast, 1.76 µM. In addition, the TGI in the assay with PC-3 prostate is 3.5 µM; in the assay with OVCAR-8 ovarian, 4.2 µM; with CAKI-1 renal it was 5.56 µM; in the assay with SK-MEL-5 melanoma it was 3.27 µM; in the assay with SR leukemia, 4.56 µM; in the assay on MDA-MB-435, 3.24 µM. In addition, the TGI amounted to 3.41 µM in the assay with COLO 205 colon, 3.25 µM in the assay with HCT-116 colon, 3.82 µM in the assay on NCI-H522 lung and 3.54 µM with MCF7 breast.
Consider `COC(=O)C(CO)NC(=O)C(CSC(c1ccccc1)(c1ccccc1)c1ccccc1)NC(=O)OCc1ccccc1` (stereo not given) (Cbz-Cys(Trt)-Ser-OMe; configuration not given here), for which the TGI was 27.4 µM in the assay with PC-3 prostate; 36.5 µM with OVCAR-8 ovarian; 39.4 µM with CAKI-1 renal; 28.4 µM in the assay on SK-MEL-5 melanoma; 0.221 µM with SR leukemia; 30.2 µM in the assay with MDA-MB-435. The TGI with COLO 205 colon was 32.4 µM; in the assay with HCT-116 colon it was 42.1 µM; in the assay with NCI-H522 lung, 34.3 µM; with MCF7 breast it was above 59.1 µM.

These data come from PubChem BioAssay (NCI).
